Tested on: wildtype (WT) human fibroblast cell lines
Experiment: Transcriptome-wide splicing by RNA sequencing (RNASeq), exon triplet PSI change;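 on Effect: six WT fibroblast lines treated seven days versus DMSO vehicle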;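 on T-PSI: T-PSI is average treated PSI after seven days of treatment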
Type: cell-based
Design: key to Effect: Exclusion; Inclusion; Unchanged
Description: FIG. 2A provides a representation of an exon triplet. Exon U is upstream of Exon X, which is upstream of Exon D. R1, R2 and R3 represent RNA sequencing (RNASeq) reads spanning the regions between two adjacent exons. UI1, I1X, XI2 and I2D are four regions flanking the four splice sites of the exon-triplet. Each flanking region consists of 25 exonic base pairs and 75 intronic base pairs.
FIG. 2B provides a volcano plot showing the ψ (PSI: Percent Spliced-In) changes in splicing after treatment with Compound (I). Each dot represents one of the 161,097 expressed exon triplets in human fibroblasts. The x axis represents the ψ changes after treatment and the y axis represents the False Discovery Rate (FDR) (log 10 transformed). […] The horizontal dashed line indicates an FDR of 0.1. The dots on the right side of the right vertical dashed line and above the horizontal dashed line represent the exon-triplets with an increase for Exon X inclusion (Δψ≥0.1 and FDR<0.1) while the dots on left side of the left vertical dashed line and above the horizontal dashed line represent an increase for Exon X exclusion (Δψ≤−0.1 and FDR<0.1). Black dots in-between the two vertical dashed lines represent exon-triplets unchanged from the treatment.
In some aspects, analysis is performed on data derived from the assay to measure the magnitude of splicing to determine the amount of exons spliced into an mRNA transcript that is produced in the presence of Compound (I) relative to the amount in the absence of Compound (I) or presence of a negative control. In a preferred aspect, the method utilized is calculation of change in Percent Spliced In (ΔPSI). […] The ΔPSI value is derived from the formula: […]
The values for “a” and “b” represent the number of reads supporting the probability for potential inclusion or exclusion of an exon in an RNA transcript. The “a” value is derived from the number of reads within an exon triplet covering, in 5′ to 3′ order: the last few bases (>1 nucleotide) of an upstream exon operably linked to the first few bases (>1 nucleotide) of a middle exon. The “b” value is derived from the number of reads within an exon triplet covering, in 5′ to 3′ order: the last few bases (>1 nucleotide) of the middle exon operably linked to the first few bases (>1 nucleotide) of a downstream exon. The number of reads will indicate whether the splice junction of a middle exon has been identified as potentially having a CNN Motif(s) by the CNN Model described herein, wherein the inclusion or exclusion of the middle exon may be modulated in the presence of Compound (I) to produce one or more mature RNA isoforms from the gene transcript. The value for “c” represents the number of reads supporting the exclusion of the middle exon.
The effect on splicing modulation and corresponding splice differences toward exon inclusion or exclusion was determined by counting the RNASeq reads covering two splice junctions of exon triplets (three consecutive exons: Exon U, Exon X, Exon D) and the corresponding intervening introns, then comparing the change in Percent Spliced In (ΔPSI or Δψ) of the middle exon (Exon X) after treatment (as shown in FIG. 2A)^52,53. 934 exon triplets were identified showing differential middle exon inclusion or exclusion in response to Compound (I) treatment. Of these, 254 were exon inclusion events (Δψ≥0.1 and FDR<0.1) and 680 were exon exclusion events (Δψ≤−0.1 and FDR<0.1) (as shown in FIG. 2B). […] The splicing results were evaluated by RT-PCR in independent replicate experiments, confirming all the calculated Δψ values. […]

[1] = NSMCE2 Exon 126168242-126168340

In the case of Clc1nc(NCc2ccncc2)c2cc[nH]c2n1 [Compound (I), 2-chloro-N-(pyridin-4-ylmethyl)-7H-pyrrolo[2,3-d]pyrimidin-4-amine], the Effect (NIN Exon 51233025-51233114) is reported as “Unc”, the T-PSI (NIN Exon 51233025-51233114) is reported as 0.896 and the ΔPSI (NIN Exon 51233025-51233114) is reported as 0.008. For the same compound, the Effect (NIPA2 Exon 23027801-23027922) was “Exc”, the T-PSI (NIPA2 Exon 23027801-23027922) was 0.326 and the ΔPSI (NIPA2 Exon 23027801-23027922) was −0.185. For the same compound, the Effect (NIPA2 Exon 23033278-23033413) was “Exc”, the T-PSI (NIPA2 Exon 23033278-23033413) was 0.608 and the ΔPSI (NIPA2 Exon 23033278-23033413) was −0.163. The Effect (NLRC5 Exon 57110731-57110814) was “Exc”, the T-PSI (NLRC5 Exon 57110731-57110814) was 0.857 and the ΔPSI (NLRC5 Exon 57110731-57110814) was −0.122. The Effect (NLRX1 Exon 119043065-119043134) was “Exc”, the T-PSI (NLRX1 Exon 119043065-119043134) was 0.742 and the ΔPSI (NLRX1 Exon 119043065-119043134) was −0.143. The Effect (NPEPPS Exon 45654447-45654526) was “Inc”, the T-PSI (NPEPPS Exon 45654447-45654526) was 0.172 and the ΔPSI (NPEPPS Exon 45654447-45654526) was 0.135. For the same compound, the Effect (NPR2 Exon 35802729-35802800) was “Exc”, the T-PSI (NPR2 Exon 35802729-35802800) was 0.878 and the ΔPSI (NPR2 Exon 35802729-35802800) was −0.101. The Effect (NPRL3 Exon 167300-167374) was “Exc”, the T-PSI (NPRL3 Exon 167300-167374) was 0.697 and the ΔPSI (NPRL3 Exon 167300-167374) was −0.155. For the same compound, the Effect (NPRL3 Exon 174936-175072) was “Unc”, the T-PSI (NPRL3 Exon 174936-175072) was 0.206 and the ΔPSI (NPRL3 Exon 174936-175072) was 0.006. For the same compound, the Effect (NPRL3 Exon 180521-180590) was “Unc”, the T-PSI (NPRL3 Exon 180521-180590) was 0.858 and the ΔPSI (NPRL3 Exon 180521-180590) was 0.003. For the same compound, the Effect (NRG1 Exon 32620736-32620877) was “Inc”, the T-PSI (NRG1 Exon 32620736-32620877) was 0.510 and the ΔPSI (NRG1 Exon 32620736-32620877) was 0.182. The Effect (NSFL1C Exon 1436359-1436364) was “Exc”, the T-PSI (NSFL1C Exon 1436359-1436364) was 0.345 and the ΔPSI (NSFL1C Exon 1436359-1436364) was −0.153. The Effect (NSFL1C Exon 1436359-1436515) was “Exc”, the T-PSI (NSFL1C Exon 1436359-1436515) was 0.214 and the ΔPSI (NSFL1C Exon 1436359-1436515) was −0.123. The Effect [1] was “Inc”, the T-PSI [1] was 0.162 and the ΔPSI [1] was 0.133. For the same compound, the Effect (NSUN4 Exon 46812593-46812747) was “Exc”, the T-PSI (NSUN4 Exon 46812593-46812747) was 0.817 and the ΔPSI (NSUN4 Exon 46812593-46812747) was −0.124. The Effect (NT5C2 Exon 104871502-104871562) was “Exc”, the T-PSI (NT5C2 Exon 104871502-104871562) was 0.351 and the ΔPSI (NT5C2 Exon 104871502-104871562) was −0.306. For the same compound, the Effect (NTMT1 Exon 132394929-132395080) was “Unc”, the T-PSI (NTMT1 Exon 132394929-132395080) was 0.828 and the ΔPSI (NTMT1 Exon 132394929-132395080) was −0.009. For the same compound, the Effect (NTPCR Exon 233091303-233091465) was “Unc”, the T-PSI (NTPCR Exon 233091303-233091465) was 0.785 and the ΔPSI (NTPCR Exon 233091303-233091465) was 0.009. The Effect (NUB1 Exon 151046159-151046326) was “Exc”, the T-PSI (NUB1 Exon 151046159-151046326) was 0.858 and the ΔPSI (NUB1 Exon 151046159-151046326) was −0.126. For the same compound, the Effect (NUBP2 Exon 1836758-1836956) was “Unc”, the T-PSI (NUBP2 Exon 1836758-1836956) was 0.575 and the ΔPSI (NUBP2 Exon 1836758-1836956) was 0.006. For the same compound, the Effect (NUMB Exon 73833605-73833689) was “Unc”, the T-PSI (NUMB Exon 73833605-73833689) was 0.697 and the ΔPSI (NUMB Exon 73833605-73833689) was −0.003. For the same compound, the Effect (NUP43 Exon 150059779-150059914) was “Exc”, the T-PSI (NUP43 Exon 150059779-150059914) was 0.865 and the ΔPSI (NUP43 Exon 150059779-150059914) was −0.118. For the same compound, the Effect (NUP62 Exon 50430951-50431105) was “Inc”, the T-PSI (NUP62 Exon 50430951-50431105) was 0.787 and the ΔPSI (NUP62 Exon 50430951-50431105) was 0.124. The Effect (NUP98 Exon 3707294-3707424) was “Unc”, the T-PSI (NUP98 Exon 3707294-3707424) was 0.862 and the ΔPSI (NUP98 Exon 3707294-3707424) was −0.009. For the same compound, the Effect (NUPL2 Exon 23235458-23235534) was “Exc”, the T-PSI (NUPL2 Exon 23235458-23235534) was 0.602 and the ΔPSI (NUPL2 Exon 23235458-23235534) was −0.244. For the same compound, the Effect (NUTF2 Exon 67881181-67881359) was “Unc”.
